Assay results as given in patent publication US20220187282A1, “CARDIOMYOCYTE PROLIFERATION” (The Council of the Queensland Institute of Medical Research, priority 2019, published 2022).

Legend:
Format in all cases: biochemical
[1] = target: kinases (Homo sapiens, UniProt Q8N752); conditions: CSNK1A1L FRET-Z-Lyte SP; Test Conc(μM):ATP Conc(μM) 1:5
[2] = target: kinases (Homo sapiens, UniProt P54760); conditions: EPHB4 FRET-Z-Lyte SP; Test Conc(μM):ATP Conc(μM) 1:100
[3] = target: kinases (Homo sapiens, UniProt O60285); conditions: NUAK1 (ARK5) FRET-Adapta SP; Test Conc(μM):ATP Conc(μM) 1:25
[4] = target: kinases (Homo sapiens, UniProt O94806); conditions: PRKCN (PKD3) FRET-Z-Lyte SP; Test Conc(μM):ATP Conc(μM) 1:25
[5] = target: kinases (Homo sapiens, UniProt Q96RG2); conditions: PASK FRET-Z-Lyte SP; Test Conc(μM):ATP Conc(μM) 1:50
[6] = target: kinases (Homo sapiens, UniProt Q92630); conditions: DYRK2 FRET-Lantha SP; Test Conc(μM) 1
Chain of kinases (Homo sapiens, UniProt Q92630) (Q92630 whole entry): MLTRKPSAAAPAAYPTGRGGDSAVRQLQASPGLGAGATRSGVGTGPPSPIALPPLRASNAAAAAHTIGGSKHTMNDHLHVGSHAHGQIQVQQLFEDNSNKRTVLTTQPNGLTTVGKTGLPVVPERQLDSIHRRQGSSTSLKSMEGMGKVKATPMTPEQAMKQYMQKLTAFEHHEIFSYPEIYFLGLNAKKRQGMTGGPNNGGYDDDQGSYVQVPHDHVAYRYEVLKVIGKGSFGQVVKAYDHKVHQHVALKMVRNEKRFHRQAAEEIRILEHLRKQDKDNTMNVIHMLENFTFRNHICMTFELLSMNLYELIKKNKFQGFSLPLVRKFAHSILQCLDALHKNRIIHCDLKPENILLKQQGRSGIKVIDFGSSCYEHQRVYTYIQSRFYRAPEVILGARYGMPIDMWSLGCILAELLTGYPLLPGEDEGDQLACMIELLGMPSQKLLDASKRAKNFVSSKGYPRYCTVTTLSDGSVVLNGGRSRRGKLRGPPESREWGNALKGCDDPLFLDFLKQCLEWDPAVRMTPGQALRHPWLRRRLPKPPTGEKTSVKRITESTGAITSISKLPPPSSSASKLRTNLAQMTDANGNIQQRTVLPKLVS

[7] = target: kinases (Homo sapiens, UniProt Q9P1W9); conditions: PIM2 FRET-Z-Lyte SP; Test Conc(μM):ATP Conc(μM) 1:5
[8] = target: kinases (Homo sapiens, UniProt Q9NQU5); conditions: PAK6 FRET-Z-Lyte SP; Test Conc(μM):ATP Conc(μM) 1:10
Chain of kinases (Homo sapiens, UniProt Q9NQU5) (Q9NQU5 whole entry): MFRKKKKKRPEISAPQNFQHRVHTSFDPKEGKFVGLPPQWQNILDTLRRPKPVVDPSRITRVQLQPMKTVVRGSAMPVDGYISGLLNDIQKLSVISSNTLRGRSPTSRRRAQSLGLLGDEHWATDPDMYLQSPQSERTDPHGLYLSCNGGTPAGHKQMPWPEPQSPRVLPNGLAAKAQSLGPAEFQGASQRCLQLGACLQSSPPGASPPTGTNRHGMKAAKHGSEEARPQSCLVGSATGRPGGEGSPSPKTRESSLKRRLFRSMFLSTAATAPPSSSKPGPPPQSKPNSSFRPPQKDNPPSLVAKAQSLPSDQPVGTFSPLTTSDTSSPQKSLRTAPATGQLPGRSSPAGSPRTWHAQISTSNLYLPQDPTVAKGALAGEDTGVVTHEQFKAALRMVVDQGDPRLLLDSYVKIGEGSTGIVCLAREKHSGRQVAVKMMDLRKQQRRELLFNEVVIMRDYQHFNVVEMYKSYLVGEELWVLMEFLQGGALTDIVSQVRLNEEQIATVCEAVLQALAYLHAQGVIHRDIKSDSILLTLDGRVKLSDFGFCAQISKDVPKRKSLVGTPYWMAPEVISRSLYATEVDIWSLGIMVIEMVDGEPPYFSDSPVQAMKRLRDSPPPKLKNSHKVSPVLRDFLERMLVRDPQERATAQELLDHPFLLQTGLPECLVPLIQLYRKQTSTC

[9] = target: kinases (Homo sapiens, UniProt O75747); conditions: PIK3C2G FRET-Adapta SP; Test Conc(μM):ATP Conc(μM) 1:10
[10] = target: kinases (Homo sapiens, UniProt P37173); conditions: TGFBR2 FRET-Lantha SP; Test Conc(μM) 1
Chain of kinases (Homo sapiens, UniProt P37173) (P37173 23-567): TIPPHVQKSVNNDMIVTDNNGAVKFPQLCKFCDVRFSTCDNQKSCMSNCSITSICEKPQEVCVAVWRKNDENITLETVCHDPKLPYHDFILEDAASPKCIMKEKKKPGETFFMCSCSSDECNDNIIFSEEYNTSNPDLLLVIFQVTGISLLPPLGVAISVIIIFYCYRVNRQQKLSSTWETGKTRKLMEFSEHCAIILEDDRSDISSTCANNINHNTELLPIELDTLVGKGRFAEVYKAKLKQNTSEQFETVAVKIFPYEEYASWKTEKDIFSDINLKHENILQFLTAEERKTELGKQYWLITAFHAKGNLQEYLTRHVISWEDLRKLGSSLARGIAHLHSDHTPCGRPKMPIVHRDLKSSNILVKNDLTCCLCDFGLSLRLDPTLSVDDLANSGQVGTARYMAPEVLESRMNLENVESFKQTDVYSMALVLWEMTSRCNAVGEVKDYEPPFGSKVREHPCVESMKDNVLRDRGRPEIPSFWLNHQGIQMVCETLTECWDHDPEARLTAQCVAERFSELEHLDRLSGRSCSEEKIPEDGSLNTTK

[11] = target: kinases (Homo sapiens, UniProt P28482); conditions: MAPK1 (ERK2) FRET-Z-Lyte SP; Test Conc(μM):ATP Conc(μM) 1:100
[12] = target: kinases (Homo sapiens, UniProt P30291); conditions: WEE1 FRET-Lantha SP; Test Conc(μM) 1
[13] = target: kinases (Homo sapiens, UniProt P48730); conditions: CSNK1D (CK1 delta) Z-Lyte SP; Test Conc(μM):ATP Conc(μM) 1:5
Chain of kinases (Homo sapiens, UniProt P48730) (P48730 whole entry): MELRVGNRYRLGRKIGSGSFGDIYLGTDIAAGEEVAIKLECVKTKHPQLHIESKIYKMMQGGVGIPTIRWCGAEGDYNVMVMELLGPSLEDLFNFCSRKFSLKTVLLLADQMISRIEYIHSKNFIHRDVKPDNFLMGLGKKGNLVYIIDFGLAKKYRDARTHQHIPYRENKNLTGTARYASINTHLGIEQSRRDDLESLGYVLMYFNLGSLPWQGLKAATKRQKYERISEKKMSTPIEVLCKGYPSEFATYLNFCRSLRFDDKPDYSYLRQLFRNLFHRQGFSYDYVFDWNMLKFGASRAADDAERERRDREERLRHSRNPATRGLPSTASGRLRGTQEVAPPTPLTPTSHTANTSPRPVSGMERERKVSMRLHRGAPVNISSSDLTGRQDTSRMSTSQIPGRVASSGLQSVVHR

[14] = target: kinases (Homo sapiens, UniProt Q9NYA1); conditions: SPHK1 FRET-Adapta SP; Test Conc(μM):ATP Conc(μM) 1:10
Chain of kinases (Homo sapiens, UniProt Q9NYA1) (Q9NYA1 whole entry): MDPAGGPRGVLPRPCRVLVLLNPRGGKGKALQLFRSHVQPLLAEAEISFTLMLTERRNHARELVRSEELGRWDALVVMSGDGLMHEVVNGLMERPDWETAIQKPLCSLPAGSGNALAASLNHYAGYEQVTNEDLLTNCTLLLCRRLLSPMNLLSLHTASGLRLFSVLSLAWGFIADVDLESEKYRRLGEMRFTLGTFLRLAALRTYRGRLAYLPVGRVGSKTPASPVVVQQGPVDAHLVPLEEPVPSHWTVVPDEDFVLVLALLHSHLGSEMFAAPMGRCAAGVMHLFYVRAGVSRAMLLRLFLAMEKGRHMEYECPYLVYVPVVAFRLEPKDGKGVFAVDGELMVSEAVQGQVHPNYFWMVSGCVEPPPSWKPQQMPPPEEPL

[15] = target: kinases (Homo sapiens, UniProt P68400); conditions: CSNK2A1 (CK2alpha1) Z-Lyte SP; Test Conc(μM):ATP Conc(μM) 1:5
[16] = target: kinases (Homo sapiens, UniProt O15146); conditions: MUSK *Mn* FRET-Z-Lyte SP; Test Conc(μM):ATP Conc(μM) 1:50
[17] = target: kinases (Homo sapiens, UniProt P29320); conditions: EPHA3 FRET-Lantha SP; Test Conc(μM) 1
[18] = target: kinases (Homo sapiens, UniProt Q13164); conditions: MAPK7 (ERK5) FRET-Z-Lyte SP; Test Conc(μM):ATP Conc(μM) 1:10
[19] = target: kinases (Homo sapiens, UniProt Q99755); conditions: PIP5K1A FRET-Adapta SP; Test Conc(μM):ATP Conc(μM) 1:10
[20] = target: kinases (Homo sapiens, UniProt O96013); conditions: PAK4 FRET-Z-Lyte SP; Test Conc(μM):ATP Conc(μM) 1:5
[21] = target: kinases (Homo sapiens, UniProt Q9UQB9); conditions: AURKC (Aurora C) Z-Lyte SP; Test Conc(μM):ATP Conc(μM) 1:25
Chain of kinases (Homo sapiens, UniProt Q9UQB9) (Q9UQB9 whole entry): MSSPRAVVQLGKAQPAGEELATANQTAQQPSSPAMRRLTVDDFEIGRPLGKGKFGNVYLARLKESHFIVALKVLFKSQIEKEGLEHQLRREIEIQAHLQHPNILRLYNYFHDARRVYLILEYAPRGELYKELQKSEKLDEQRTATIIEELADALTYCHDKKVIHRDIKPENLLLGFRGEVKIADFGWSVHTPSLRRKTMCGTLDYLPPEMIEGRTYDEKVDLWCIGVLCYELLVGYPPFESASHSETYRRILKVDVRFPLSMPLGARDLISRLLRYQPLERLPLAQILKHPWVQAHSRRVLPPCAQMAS

[22] = target: kinases (Homo sapiens, UniProt P16234); conditions: PDGFRA *Mn* FRET-Z-Lyte SP; Test Conc(μM):ATP Conc(μM) 1:10
[23] = target: kinases (Homo sapiens, UniProt P06239); conditions: LCK FRET-Z-Lyte SP; Test Conc(μM):ATP Conc(μM) 1:50
Chain of kinases (Homo sapiens, UniProt P06239) (P06239 whole entry): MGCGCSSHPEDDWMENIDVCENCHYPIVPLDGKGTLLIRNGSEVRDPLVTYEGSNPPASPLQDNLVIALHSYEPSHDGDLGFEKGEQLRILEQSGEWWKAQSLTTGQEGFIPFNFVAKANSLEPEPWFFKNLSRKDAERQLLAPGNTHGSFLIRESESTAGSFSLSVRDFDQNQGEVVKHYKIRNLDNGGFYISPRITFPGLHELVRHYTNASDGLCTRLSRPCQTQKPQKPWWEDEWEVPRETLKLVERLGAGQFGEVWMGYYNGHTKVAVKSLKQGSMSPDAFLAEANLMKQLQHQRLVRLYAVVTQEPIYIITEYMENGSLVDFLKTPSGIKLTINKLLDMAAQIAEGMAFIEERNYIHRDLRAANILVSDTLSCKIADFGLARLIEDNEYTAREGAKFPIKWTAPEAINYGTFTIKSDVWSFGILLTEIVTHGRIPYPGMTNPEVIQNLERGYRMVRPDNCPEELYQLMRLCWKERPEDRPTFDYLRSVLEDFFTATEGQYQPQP

[24] = target: kinases (Homo sapiens, UniProt P23458); conditions: JAK1 FRET-Z-Lyte SP; Test Conc(μM):ATP Conc(μM) 1:75
Chain of kinases (Homo sapiens, UniProt P23458) (P23458 whole entry): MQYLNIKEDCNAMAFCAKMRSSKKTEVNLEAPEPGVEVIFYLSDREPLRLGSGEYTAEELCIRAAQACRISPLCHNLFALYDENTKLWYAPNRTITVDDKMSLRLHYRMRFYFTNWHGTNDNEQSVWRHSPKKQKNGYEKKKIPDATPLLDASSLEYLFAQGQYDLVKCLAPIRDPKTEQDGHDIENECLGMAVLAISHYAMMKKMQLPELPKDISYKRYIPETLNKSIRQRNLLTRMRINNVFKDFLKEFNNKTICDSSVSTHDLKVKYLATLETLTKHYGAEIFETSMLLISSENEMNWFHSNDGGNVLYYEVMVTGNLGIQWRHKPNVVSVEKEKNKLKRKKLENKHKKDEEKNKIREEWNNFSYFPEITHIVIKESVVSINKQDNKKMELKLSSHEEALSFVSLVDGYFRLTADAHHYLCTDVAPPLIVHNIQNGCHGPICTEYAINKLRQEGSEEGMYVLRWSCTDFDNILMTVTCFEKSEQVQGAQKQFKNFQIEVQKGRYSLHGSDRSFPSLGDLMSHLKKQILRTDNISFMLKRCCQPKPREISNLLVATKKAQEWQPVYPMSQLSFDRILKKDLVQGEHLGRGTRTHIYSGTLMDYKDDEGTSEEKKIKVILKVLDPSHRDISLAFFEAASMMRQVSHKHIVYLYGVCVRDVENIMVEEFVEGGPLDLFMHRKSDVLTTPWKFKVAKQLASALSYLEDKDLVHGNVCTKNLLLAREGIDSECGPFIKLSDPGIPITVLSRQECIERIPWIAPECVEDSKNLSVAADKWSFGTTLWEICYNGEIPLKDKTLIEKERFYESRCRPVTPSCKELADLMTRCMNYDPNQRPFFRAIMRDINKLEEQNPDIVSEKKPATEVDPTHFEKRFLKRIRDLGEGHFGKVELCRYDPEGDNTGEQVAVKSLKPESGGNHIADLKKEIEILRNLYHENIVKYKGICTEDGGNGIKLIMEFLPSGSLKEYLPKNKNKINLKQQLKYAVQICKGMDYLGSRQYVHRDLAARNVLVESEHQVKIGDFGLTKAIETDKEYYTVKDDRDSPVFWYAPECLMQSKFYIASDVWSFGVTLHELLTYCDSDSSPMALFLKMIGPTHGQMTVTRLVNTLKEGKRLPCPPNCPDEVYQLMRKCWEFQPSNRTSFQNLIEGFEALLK

[25] = target: kinases (Homo sapiens, UniProt Q14012); conditions: CAMK1 (CaMK1) FRET-Adapta SP; Test Conc(μM):ATP Conc(μM) 1:10
Chain of kinases (Homo sapiens, UniProt Q14012) (Q14012 whole entry): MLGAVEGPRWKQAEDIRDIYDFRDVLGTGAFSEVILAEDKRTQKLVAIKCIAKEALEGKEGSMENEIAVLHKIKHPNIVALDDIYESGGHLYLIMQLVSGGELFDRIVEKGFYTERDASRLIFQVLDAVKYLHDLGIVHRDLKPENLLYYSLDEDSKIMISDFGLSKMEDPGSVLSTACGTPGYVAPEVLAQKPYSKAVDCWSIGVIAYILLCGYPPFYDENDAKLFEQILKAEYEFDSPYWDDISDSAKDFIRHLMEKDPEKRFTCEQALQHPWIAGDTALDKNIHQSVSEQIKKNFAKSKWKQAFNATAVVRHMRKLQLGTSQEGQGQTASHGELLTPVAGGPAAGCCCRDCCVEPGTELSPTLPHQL

[26] = target: kinases (Homo sapiens, UniProt P57059); conditions: SIK1 FRET-Lantha SP; Test Conc(μM) 1
[27] = target: kinases (Homo sapiens, UniProt P14616); conditions: INSRR (IRR) *Mn* Z-Lyte SP; Test Conc(μM):ATP Conc(μM) 1:50
[28] = target: kinases (Homo sapiens, UniProt Q16644); conditions: MAPKAPK3 FRET-Z-Lyte SP; Test Conc(μM):ATP Conc(μM) 1:200

Structure (SMILES) | Mean Inhib (%) [1] [%] | Mean Inhib (%) [2] [%] | Mean Inhib (%) [3] [%] | Mean Inhib (%) [4] [%] | Mean Inhib (%) [5] [%] | Mean Inhib (%) [6] [%] | Mean Inhib (%) [7] [%] | Mean Inhib (%) [8] [%] | Mean Inhib (%) [9] [%] | Mean Inhib (%) [10] [%] | Mean Inhib (%) [11] [%] | Mean Inhib (%) [12] [%] | Mean Inhib (%) [13] [%] | Mean Inhib (%) [14] [%] | Mean Inhib (%) [15] [%] | Mean Inhib (%) [16] [%] | Mean Inhib (%) [17] [%] | Mean Inhib (%) [18] [%] | Mean Inhib (%) [19] [%] | Mean Inhib (%) [20] [%] | further results
Cc1ccc(NC(=O)c2ccnc(N3CCOCC3)c2)cc1Nc1ccnc(N2CC(C)OC(C)C2)n1 (centres unmarked) [compound 3] | 2.0 | 1.4 | −5.6 | 9.0 | 13.7 | −0.5 | −0.3 | 15.9 | 5.6 | −3.5 | 3.6 | 4.6 | 1.2 | 8.0 | 6.1 | 19.5 | 4.8 | 0.2 | −2.9 | 0.9 | Mean Inhib (%) [21]: 9.3%; Mean Inhib (%) [22]: 2.4%; Mean Inhib (%) [23]: −4.1%; Mean Inhib (%) [24]: −1.9%; Mean Inhib (%) [25]: −9.9%; Mean Inhib (%) [26]: −0.5%; Mean Inhib (%) [27]: 13.5%; Mean Inhib (%) [28]: 1.7%
Cc1cc(Oc2ccnc(Nc3ccc(S(N)(=O)=O)cc3)c2)c(-c2ccccn2)nc1C [compound 65] | 0.5 | 58.1 | −3.5 | 12.4 | 3.8 | 9.6 | 3.7 | 16.2 | 0.4 | 67.0 | 7.5 | 1.2 | 1.9 | −0.7 | 2.4 | 17.2 | 27.9 | 6.6 | 2.4 | 7.4 | Mean Inhib (%) [21]: 4.2%; Mean Inhib (%) [22]: 7.6%; Mean Inhib (%) [23]: 39.7%; Mean Inhib (%) [24]: 4.3%; Mean Inhib (%) [25]: 7.3%; Mean Inhib (%) [26]: 1.8%; Mean Inhib (%) [27]: 5.5%; Mean Inhib (%) [28]: −1.3%
